Data published in patent publication US20250082620A1, “NOVEL CINNAMAMIDE DERIVATIVES AND USE THEREOF” (KOREA RESEARCH INSTITUTE OF BIOSCIENCE AND BIOTECHNOLOGY, priority 2022, published 2025).
Each block holds one compound with its values, some of them ahead of it.

Key:
STAT3 activity (p-STAT3) [1] = target: T1, STAT3 activity (p-STAT3) (Homo sapiens, UniProt P40763); assay: STAT3 phosphorylation inhibitory effect in cancer cell line by Western blot (Table 2); assay type: cell-based; design: endogenous in cells; host or cells: unnamed 'rectal cancer cell' line; details: rectal cancer cell line, read-out: Concentration at which STAT3 activity (p-STAT3) is inhibited by 50% (μM; IC50)
T1 sequence (P40763 whole entry): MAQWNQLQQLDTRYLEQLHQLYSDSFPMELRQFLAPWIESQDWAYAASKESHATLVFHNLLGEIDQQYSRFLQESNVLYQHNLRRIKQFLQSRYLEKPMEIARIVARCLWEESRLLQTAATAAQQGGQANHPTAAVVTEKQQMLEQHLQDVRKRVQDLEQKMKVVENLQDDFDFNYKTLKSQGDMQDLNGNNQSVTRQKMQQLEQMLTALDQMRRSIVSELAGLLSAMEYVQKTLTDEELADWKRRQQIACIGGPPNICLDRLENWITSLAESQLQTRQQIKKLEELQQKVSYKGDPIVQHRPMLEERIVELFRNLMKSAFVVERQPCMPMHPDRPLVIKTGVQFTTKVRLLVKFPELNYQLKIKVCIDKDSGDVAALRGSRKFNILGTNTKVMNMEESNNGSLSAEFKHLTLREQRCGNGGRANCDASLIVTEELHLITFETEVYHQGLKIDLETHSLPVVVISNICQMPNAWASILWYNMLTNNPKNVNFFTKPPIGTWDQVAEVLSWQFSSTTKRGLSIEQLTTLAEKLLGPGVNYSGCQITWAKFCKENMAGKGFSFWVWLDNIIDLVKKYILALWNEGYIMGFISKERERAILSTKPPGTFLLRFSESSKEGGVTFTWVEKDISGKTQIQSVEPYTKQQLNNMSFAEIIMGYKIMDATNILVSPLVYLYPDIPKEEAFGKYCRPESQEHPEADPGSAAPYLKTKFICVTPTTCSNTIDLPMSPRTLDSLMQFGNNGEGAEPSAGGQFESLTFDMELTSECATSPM
Description: (§1) Prostate cancer cell line DU-145, breast cancer cell MDA-MB 468, lung cancer cell HCC827, natural killer cells (NKL), or bone marrow-derived macrophages (BMDM) (4×10^5 cells), which are immune cells, were plated in a 6-well plate. After 24 hours, the cells were each treated with 0.1% DMSO, HCA, EA, and the compounds prepared in Synthesis Examples 1 to 8 according to concentration and time, washed with PBS, and recovered using RIPA buffer. […] of protein quantified using the Bio-Rad protein assay kit (Bio-Rad, Hercules, California, USA) was subjected to 8% SDS-PAGE electrophoresis and transferred to a PVDF membrane (EMD Millipore, Billerica, MA, USA). After blocking the membrane with TBST containing 5% skim milk, the experiment was performed using primary and secondary antibodies. The primary antibodies used were p-STAT3 (Y705) (Cell Signaling), STAT3 (Cell Signaling), Cyclin D1 (Santa Cruz), Cyclin A (Santa Cruz), Mcl-1 (Santa Cruz), Survivin (Cell Signaling), Bcl-XL (Santa Cruz), and PARP (Cell Signaling) GAPDH (Santa Cruz), and the secondary antibodies used were HRP-conjugated goat anti-rabbit and anti-mouse IgG (Jackson ImmunoResearch Laboratories, West Grove, PA, USA). The antibodies used were each washed three times with TBST, and bands were detected using Luminata Forte Western HRP substrate (EMD Millipore) by LAS 4000 mini (GE Healthcare Life Sciences). Subsequently, correction using GAPDH was performed using the MultiGauge program (Fuji Photo Film, Tokyo, Japan).
The STAT3 phosphorylation inhibitory effect of the cinnamamide derivatives of Chemical Formula 1 prepared in Synthesis Examples 1 to 8 in cancer cell lines was confirmed by Western blot.
Specifically, the STAT3 phosphorylation inhibitory effect in rectal cancer cell was confirmed line as an example of representative carcinoma.

[2] = system: human-derived prostate cancer (DU-145); assay: Nude mouse subcutaneous transplant model of human-derived prostate cancer (DU-145); assay type: in vivo, nude mice
Description: It was attempted to evaluate the anticancer efficacy of the compound CG165 of the present disclosure by oral administration using nude mouse subcutaneous transplant models of human-derived prostate cancer (DU-145).
Specifically. Athymic-NCr NCr-nu specific pathogen-free (SPF) 5-week-old nude mice supplied by KOATECH (Pyeongtaek-si, Gyeonggi-do) were used as animals. The cancer cell concentration was adjusted to 3×10^7 cells/mL, and 0.3 mL of cell culture per mouse was injected subcutaneously into the axillary area between the right shoulder and chest wall. Subsequently, CG165 was prepared at the corresponding concentrations by adding DMAC 10%+Tween80 10%+20% HPBCD 80% step by step, and was administered orally at 0.2 mL per 20 g of mouse, which was repeated a total of 23 times for 30 days. At 30 days after starting drug administration, the DU-145 tumor was excised and its weight was measured.
Next, it was attempted to evaluate the anticancer efficacy of the compound CG126 of the present disclosure by intraperitoneal administration using nude mouse subcutaneous transplant models of human-derived prostate cancer (DU-145) in the same manner as above.

[3] = target: T2, STAT3 phosphorylation (p-STAT3) (Homo sapiens, UniProt P40763); assay: STAT3 phosphorylation inhibition in natural killer cells (NKL) by Western blot; assay type: cell-based; details: 2, 5, 10 μM
T2 construct: endogenous in cells; host or cells: NKL natural killer cells
T2 sequence (P40763 whole entry): as above
Description: as §1, with “The primary antibodies used were p-STAT3 (Y705) (Cell Signaling), STAT3 (Cell Signaling), Cyclin D1 (Santa Cruz), Cyclin A (Santa Cruz), Mcl-1 (Santa Cruz), Survivin (Cell Signaling), Bcl-XL (Santa Cruz), and PARP (Cell Signaling) GAPDH (Santa Cruz), and the secondary antibodies used were HRP-conjugated goat anti-rabbit and anti-mouse IgG (Jackson ImmunoResearch Laboratories, West Grove, PA, USA).” left out, “Subsequently, correction using GAPDH was performed using the MultiGauge program (Fuji Photo Film, Tokyo, Japan).” left out
Specifically, NKL (4×10^5 cells) were plated in 6-well plate and each treated with 2 μM, 5 μM, and 10 μM of CG155 or CG165, and then the degree of STAT3 phosphorylation was measured by Western blot using p-STAT3 antibody.

[4] = target: T3, STAT3 phosphorylation (p-STAT3) (Mus musculus, UniProt P42227); assay: STAT3 phosphorylation inhibition in IL-10-treated bone marrow-derived macrophages (BMDM) by Western blot; assay type: cell-based, C57BL/6 mice; details: for inhibition of phosphorylation of STAT3, dependence on concentration: 1 hour pre-treatment, then IL-10 for 15 minutes
T3 construct: the bone marrow-derived macrophages isolated from mouse bone marrow; endogenous in cells; host or cells: primary bone marrow-derived macrophages from C57BL/6 mice
T3 sequence (P42227 whole entry): as the sequence (P40763 whole entry) above, with E760D counted along it
Description: as §1, with “Japan). […]” for “Japan).”
Subsequently, in order to confirm the function of CG155 and CG165 in inhibiting STAT3 activation in the bone marrow-derived macrophages isolated from mouse bone marrow, the bone marrow-derived macrophages were each pre-treated with DMSO, CG155 (5 μM, 10 μM), and CG165 (2 μM, 5 μM) for 1 hour. After removing the culture medium, the bone marrow-derived macrophages were treated with interleukin-10 (IL-10), a type of cytokine that can activate STAT3, for 15 minutes, and the function of CG155 and CG165 on inhibiting STAT3 activation was measured by Western blot using p-STAT3 antibody.

[5] = system: MCF10A, human breast epithelial cells; assay: Cell viability (WST-1) in normal cells MCF10A; assay type: cell-based; details: 10 μM, 48 hours
[6] = system: human foreskin fibroblasts HFF; assay: Cell viability (WST-1) in normal cells HFF; assay type: cell-based; details: 10 μM, 48 hours
[7] = system: breast cancer cell line MDA-MB-468; assay: Cell proliferation assay (WST-1) in breast cancer cell line MDA-MB-468; assay type: cell-based; details: 24 or 48 hours
Description: (§2) In Example 1, it was confirmed that STAT3 activity (p-STAT3) was inhibited by more than 50% in cancer cells when treated with the compound CG165 of the present disclosure. In order to confirm the effect of inhibiting STAT3 activity on inhibition of cancer cell growth, cell proliferation assay was performed using the breast cell line, a representative carcinoma.
Specifically, the breast cancer cell line MDA-MB-468 was treated with CG-165 according to concentrations for 24 or 48 hours, and then the degree of cell viability was measured using the WST-1 assay (Dojindo Laboratories, Kumamoto, Japan).

[8] = system: prostate cancer cell line DU-145; assay: Cell proliferation assay (WST-1) in prostate cancer cell line DU-145; assay type: cell-based, human; details: 24 or 48 hours
Description: as §2, with “inhibited” for “inhibited by more than 50%”, “cinnamamide derivatives” for “compound CG165”, “Chemical Formula 1 prepared in Synthesis Examples 1 to 8.” for “the present disclosure.”, “prostate cancer” for “breast”
Specifically, the prostate cancer cell line DU-145 (0.8×10^4 cells) was plated in a 96-well plate. After 24 hours, DMSO (control) and CG-165 were treated for 24 or 48 hours according to concentration, and then treated with 10 ul of WST-1 reagent (Dojindo Laboratories, Kumamoto, Japan). After treatment for about 1 hour, cell viability was calculated using the absorbance measured at 450 nm with a microplate reader (Multiskan GO system, Thermo Fisher Scientific, Rockford, IL, USA).

STAT3 activity (p-STAT3) [9] = target: T1, STAT3 activity (p-STAT3); assay: STAT3 phosphorylation inhibition in prostate cancer cell line DU-145 by Western blot; assay type: cell-based; design: endogenous in cells; host or cells: DU-145, MDA-MB-468, HCC827
Description: as §1
Next, the STAT3 phosphorylation inhibitory effect of the compound CG165 of the present disclosure in cancer cell lines was confirmed by Western blot.

STAT3 activity (p-STAT3) [10] = target: T1, STAT3 activity (p-STAT3); assay: STAT3 phosphorylation inhibition in breast cancer cell line MDA-MB-468 by Western blot; assay type: cell-based; design: endogenous in cells
Description: as §1, with “Subsequently, correction using GAPDH was performed using the MultiGauge program (Fuji Photo Film, Tokyo, Japan).” left out

[11] = Single oral dose toxicity in mice; assay type: in vivo; details: male mice; 100 mg/kg, 200 mg/kg, and 300 mg/kg
Description: In order to obtain information on the acute toxicity of the compound CG165 of the present disclosure whose anticancer effect has been verified in animal models, the test substance was administered orally once at 100 mg/kg, 200 mg/kg, and 300 mg/kg to male mice to determine mortality, general symptoms, weight change, and post-mortem over 7 days.
Specifically, 20 Athymic-NCr NCr-nu specific pathogen-free (SPF) 5-week-old nude mice supplied by KOATECH (Pyeongtaek-si, Gyeonggi-do) were used as animals. Subsequently, CG165 was prepared as administration solution at different concentrations by adding DMAC 10%+Tween80 10%+20% HPBCD 80% step by step, and was administered orally.
General symptoms and dead animals were observed every hour from 1 to 6 hours after the final administration on the day of administration, and once daily from the day after administration until the 7th day for observation of changes in general symptoms, toxic symptoms, and the presence of dead animals.
In order to observe changes in body weight, the body weight of all animals used in the test was measured before administration and on days 0, 1, 2, 4, and 7 after administration.
On the 7th day after administration, all animals were anesthetized using CO2 gas, laparotomized, and killed by exsanguination by cutting the abdominal artery and vein, and all internal organs were visually observed.

[12] = system: STAT3 target proteins (cyclin A, Mcl-1, survivin), caspase 3, PARP; assay: Expression of STAT3 target proteins and apoptotic effect in cancer cell lines by Western blot; assay type: cell-based
Description: as §1
In Example 1, it was confirmed that STAT3 activity (p-STAT3) was inhibited in cancer cells when treated with the compound CG165 of the present disclosure. The effect of inhibiting the expression of STAT3 target proteins and the apoptotic effect due to the inhibition of STAT3 activity were confirmed using Western blot.

STAT3 activity (p-STAT3) [13] = target: T1, STAT3 activity (p-STAT3); assay: STAT3 phosphorylation inhibition in lung cancer cell line HCC827 by Western blot; assay type: cell-based; design: endogenous in cells
Description: as §1, with “Subsequently, correction using GAPDH was performed using the MultiGauge program (Fuji Photo Film, Tokyo, Japan).” left out

SMILES: C=C(C)C(=O)NC(=O)/C=C/c1ccccc1OC [CG126]
- IC50 (STAT3 activity (p-STAT3) [1]): 3.7 µM
- decrease in tumor weight compared to the vehicle ([2]; 30 mg/kg intraperitoneal, day 25, p<0.06): 54.2%

SMILES: C=C(C)C(=O)NC(=O)/C=C/c1ccccc1C [CG127]
- IC50 (STAT3 activity (p-STAT3) [1]): 8.1 µM

SMILES: C#CCOc1ccccc1/C=C/C(=O)N(C)C(=O)C(=C)C [CG165]
- effect on the growth of normal cells (cell viability, WST-1) [5]: no significant effect
- effect on the growth of normal cells (cell viability, WST-1) [6]: no significant effect
- inhibition of growth of breast cancer cells (cell viability, WST-1) [7]: inhibited the growth of breast cancer cells in a concentration-dependent manner
- IC50 (STAT3 activity (p-STAT3) [1]): 1.8 µM
- inhibition of growth of cancer cells (cell viability, WST-1) [8]: inhibited the growth of cancer cells in a concentration-dependent manner
- inhibition of STAT3 activity (p-STAT3), dependence on concentration (STAT3 activity (p-STAT3) [9]): concentration-dependent manner
- inhibition of STAT3 activity (p-STAT3), dependence on time (STAT3 activity (p-STAT3) [9]): time-dependent manner
- inhibition at 2 µM (STAT3 activity (p-STAT3) [9]; 2 μM): > 50%
- inhibition of phosphorylation of STAT3, dependence on concentration [3]: concentration-dependent manner
- change in body weight compared to the vehicle ([2]; 30 mg/kg oral): no decrease in body weight was observed
- decrease in tumor weight compared to the vehicle ([2]; 30 mg/kg oral, day 30, p<0.05): 43.3%
- change in body weight compared to the vehicle ([2]; 60 mg/kg oral): no decrease in body weight was observed
- decrease in tumor weight compared to the vehicle ([2]; 60 mg/kg oral, day 30, p<0.05): 64.3%
- tumor growth inhibition (tumor size) compared to the vehicle ([2]; 60 mg/kg oral, day 30, p<0.05): 63.3%
- tumor growth inhibition (tumor size) compared to the vehicle ([2]; P.O, 30 mg/kg, day 30, p<0.05): 45.6%
- inhibition of STAT3 activity (p-STAT3), dependence on concentration (STAT3 activity (p-STAT3) [10]): concentration-dependent manner
- inhibition at 5 µM (STAT3 activity (p-STAT3) [10]; 5 μM): > 50%
- toxicological changes upon single oral administration [11]: did not cause toxicological changes
- caspase 3 activation [12]: activated
- decomposition of PARP protein (cell death biomarker) [12]: promoted
- expression of cyclin A, Mcl-1, and survivin (target proteins of STAT3) [12]: significantly inhibited
- inhibition at 5 µM ([4]; 5 μM, IL-10 stimulated, read-out: inhibition of STAT3 activation): > 90%
- inhibition of phosphorylation of STAT3, dependence on concentration [4]: concentration-dependent manner
- inhibition of STAT3 activity (p-STAT3), dependence on concentration (STAT3 activity (p-STAT3) [13]): concentration-dependent manner
- inhibition at 5 µM (STAT3 activity (p-STAT3) [13]; 5 μM): > 50%

Further lines, with some results ahead:

- IC50 (STAT3 activity (p-STAT3) [1]): 6.2 µM
SMILES: C=C(C)C(=O)NC(=O)/C=C/c1ccccc1O [CG133]

- IC50 (STAT3 activity (p-STAT3) [1]): 5 µM
- inhibition of phosphorylation of STAT3, dependence on concentration [4]: concentration-dependent manner
SMILES: C=C(C)C(=O)NC(=O)/C=C/c1ccccc1OCc1ccncc1 [CG155]
- inhibition of phosphorylation of STAT3, dependence on concentration [3]: concentration-dependent manner

- IC50 (STAT3 activity (p-STAT3) [1]): 3.5 µM
SMILES: C#CCOc1ccccc1/C=C/C(=O)NC(=O)C(=C)C [CG164]

- IC50 (STAT3 activity (p-STAT3) [1]): 2 µM
SMILES: C=C(C)C(=O)NC(=O)/C=C/c1ccccc1Cl [CG168]

- IC50 (STAT3 activity (p-STAT3) [1]): 3.5 µM
SMILES: C=C(C)C(=O)NC(=O)/C=C/c1ccccc1OCc1ccccc1 [CG187]
